Experimental data published in article doi:10.1101/2025.11.28.691146v1 (biorxiv, 2025).

Assays:
McrA [1] = target: T1, McrA (Streptomyces lavendulae, UniProt P43485); assay: thermal shift, label-free intrinsic fluorescence; assay type: binding; conditions: read-out: dTm at 1 mM
T1 sequence (P43485 1-448): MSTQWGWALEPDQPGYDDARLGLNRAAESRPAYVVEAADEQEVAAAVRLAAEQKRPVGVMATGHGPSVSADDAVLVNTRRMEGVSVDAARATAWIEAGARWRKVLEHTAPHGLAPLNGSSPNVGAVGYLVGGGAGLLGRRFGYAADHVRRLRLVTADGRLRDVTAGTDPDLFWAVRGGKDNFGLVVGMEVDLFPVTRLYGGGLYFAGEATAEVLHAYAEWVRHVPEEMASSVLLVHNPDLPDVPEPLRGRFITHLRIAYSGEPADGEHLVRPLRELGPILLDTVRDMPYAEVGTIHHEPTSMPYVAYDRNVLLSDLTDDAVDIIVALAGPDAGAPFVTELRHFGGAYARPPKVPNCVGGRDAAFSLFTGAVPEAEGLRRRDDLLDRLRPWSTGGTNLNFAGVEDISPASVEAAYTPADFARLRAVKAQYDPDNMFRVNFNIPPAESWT

McrA [2] = target: T1, McrA; assay: microscale thermophoresis; assay type: binding

SMILES: CO[C@@]12[C@H](COC(N)=O)C3=C(C(=O)C(C)=C(N)C3=O)N1C[C@@H]1N[C@@H]12 [mitomycin C]
- ΔTm at 1000 µM (McrA [1]): 0.5 °C
- Kd (McrA [2]): 15.9 ± 4.5 µM
